From US20050239656A1, “Pyridine compounds or salts thereof and herbicides containing the same” (priority 2002, published 2005)

Tests used:
prickly sida [1] = assay: Test Example 1: foliage treatment, upland pot test; format: in vivo, Sida spinosa L.; details: active ingredient 500 g/ha, observed 18th to 23rd day, 0 = non-treated, 100 = complete kill
rice [2] = assay: Test Example 1: foliage treatment, upland pot test; format: in vivo, Oryza sativa L.; details: crop, active ingredient 500 g/ha, observed 18th to 23rd day, 0 = non-treated, 100 = complete kill
How it was run: (§1)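 Upland pot test, foliar. Soybean 0.1–0.4 / wheat 1.3–2.4 / rice 1.2–2.6 / barnyardgrass 1.3–2.8 leaf stage at spraying; 500 L/ha carrier, 0.1% (v/v) spreader. Visual % control, 0 untreated to 100 dead, days 18–23.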

soybean [3] = assay: Test Example 1: foliage treatment, upland pot test; format: in vivo, Glycine max Merr.; details: crop, active ingredient 500 g/ha, observed 18th to 23rd day, 0 = non-treated, 100 = complete kill
How it was run: as §1

japanese ribbon wapato = assay: Test Example 3: paddy pot test, application under submerged conditions; format: in vivo, Sagittaria pygniaea; details: active ingredient 250 g/ha; submerged application at primary leaf stage; visually observed 14 days after application; 0 = non-treated, 100 = complete kill
How it was run: (§2)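 Visual growth-control rating (0 = untreated, 100 = complete kill) 14 days after treatment. The formulated compound, as a diluted wettable powder or emulsifiable concentrate, went into 3–4 cm flood water at a predetermined active-ingredient dose once the weeds reached 0.5 leaf stage (wapato: primary leaf stage).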

green foxtail [4] = assay: Test Example 1: foliage treatment, upland pot test; format: in vivo, Setaria viridis L.; details: active ingredient 500 g/ha, observed 18th to 23rd day, 0 = non-treated, 100 = complete kill
velvetleaf [5] = assay: Test Example 2: soil surface treatment, upland pot test; format: in vivo, Abutilon theophrasti MEDIC.; details: active ingredient 250 g/ha, observed 20th to 28th day
How it was run: (§3)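 Herbicidal effect is given as percent growth control, assessed by eye 20 to 28 days post-spray against untreated plants (0) and full kill (100). Treatment: soil-surface application one day after sowing, formulated product diluted in 1,500 L/ha water, upland soil, 1/170,000 ha pots.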

japanese bulrush = assay: Test Example 3: paddy pot test, application under submerged conditions; format: in vivo, Scirpus juncoides; details: active ingredient 250 g/ha; submerged application at 0.5 leaf stage; visually observed 14 days after application; 0 = non-treated, 100 = complete kill
How it was run: as §2

wheat [6] = assay: Test Example 1: foliage treatment, upland pot test; format: in vivo, Triticum spp.; details: crop, active ingredient 500 g/ha, observed 18th to 23rd day, 0 = non-treated, 100 = complete kill
How it was run: as §1

barnyardgrass [7] = assay: Test Example 3: paddy pot test, application under submerged conditions; format: in vivo, Echinochloa crus-galli L.; details: active ingredient 250 g/ha; submerged application at 0.5 leaf stage; visually observed 14 days after application; 0 = non-treated, 100 = complete kill
How it was run: as §2

crabgrass [8] = assay: Test Example 1: foliage treatment, upland pot test; format: in vivo, Digitaria sanguinalis L.; details: active ingredient 500 g/ha, observed 18th to 23rd day, 0 = non-treated, 100 = complete kill
corn [9] = assay: Test Example 1: foliage treatment, upland pot test; format: in vivo, Zea mays L.; details: crop, active ingredient 500 g/ha, observed 18th to 23rd day, 0 = non-treated, 100 = complete kill
How it was run: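 In this upland pot foliage test, corn plants at 2.1 to 3.2 leaf stages were sprayed by a small size sprayer. The spray was a conventionally formulated wettable powder or emulsifiable concentrate weighed to a set active ingredient amount, diluted in water at 500 L/ha, plus 0.1% (v/v) agricultural spreader. Visual assessment on days 18 to 23 gave growth controlling degree (%), where 0 equals untreated and 100 means complete kill.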

prickly sida [10] = assay: Test Example 2: soil surface treatment, upland pot test; format: in vivo, Sida spinosa L.; details: active ingredient 250 g/ha, observed 20th to 28th day
How it was run: as §3

wheat [11] = assay: as above; format: in vivo, Triticum spp.; details: active ingredient 250 g/ha, observed 20th to 28th day
How it was run: as §3

rice (var. Nihonbare) = assay: Test Example 3: paddy pot test, transplanted rice; format: in vivo, Oryza sativa L.; details: active ingredient 250 g/ha, applied 4th day after transplantation, visually observed 21st day after application, 0 = non-treated, 100 = complete kill
How it was run: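 Rice (var. Nihonbare) at 2 leaf stage transplanted 3 cm deep into puddled paddy soil under 3–4 cm flooding; on day 4 after transplanting, diluted wettable powder or emulsifiable concentrate applied by pipette under submerged conditions at a set active-ingredient dose. Growth scored visually 21 days after application, 0 (untreated) to 100 (complete kill) %.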

green foxtail [12] = assay: Test Example 2: soil surface treatment, upland pot test; format: in vivo, Setaria viridis L.; details: active ingredient 250 g/ha, observed 20th to 28th day
How it was run: as §3

redroot pigweed [13] = assay: Test Example 1: foliage treatment, upland pot test; format: in vivo, Amaranthus retroflexus L.; details: active ingredient 500 g/ha, observed 18th to 23rd day, 0 = non-treated, 100 = complete kill
barnyardgrass [14] = assay: Test Example 1: foliage treatment, upland pot test; format: in vivo, Echinochloa crus-galli L.; details: active ingredient 500 g/ha, observed 18th to 23rd day, 0 = non-treated, 100 = complete kill
How it was run: as §1

corn [15] = assay: Test Example 2: soil surface treatment, upland pot test; format: in vivo, Zea mays L.; details: active ingredient 250 g/ha, observed 20th to 28th day
How it was run: as §3

barnyardgrass [16] = assay: as above; format: in vivo, Echinochloa crus-galli L.; details: active ingredient 250 g/ha, observed 20th to 28th day
How it was run: as §3

soybean [17] = assay: as above; format: in vivo, Glycine max Merr.; details: active ingredient 250 g/ha, observed 20th to 28th day
How it was run: as §3

redroot pigweed [18] = assay: as above; format: in vivo, Amaranthus retroflexus L.; details: active ingredient 250 g/ha, observed 20th to 28th day
How it was run: as §3

crabgrass [19] = assay: as above; format: in vivo, Digitaria sanguinalis L.; details: active ingredient 250 g/ha, observed 20th to 28th day
How it was run: as §3

velvetleaf [20] = assay: Test Example 1: foliage treatment, upland pot test; format: in vivo, Abutilon theophrasti MEDIC.; details: active ingredient 500 g/ha, observed 18th to 23rd day, 0 = non-treated, 100 = complete kill
rice [21] = assay: Test Example 2: soil surface treatment, upland pot test; format: in vivo, Oryza sativa L.; details: active ingredient 250 g/ha, observed 20th to 28th day
How it was run: as §3

## CC(C)C(c1cnccc1C(F)(F)F)N(C)C(=O)CC(C)(C)C (stereo not drawn) [I-194]
Prickly sida [1]
  Growth controlling degree (%) Prickly sida: 70%
Rice [2]
  Growth controlling degree (%) Rice: 50%
Soybean [3]
  Growth controlling degree (%) Soybean: 40%
Japanese ribbon wapato
  Growth controlling degree (%) Japanese ribbon wapato: 30%
Green foxtail [4]
  Growth controlling degree (%) Green foxtail: 70%
Velvetleaf [5]
  Growth controlling degree (%) Velvetleaf: 30%
Japanese bulrush
  Growth controlling degree (%) Japanese bulrush: 98%
Wheat [6]
  Growth controlling degree (%) wheat: 40%
Barnyardgrass [7]
  Growth controlling degree (%) Barnyardgrass: 98%
Crabgrass [8]
  Growth controlling degree (%) Crabgrass: 80%
Corn [9]
  Growth controlling degree (%) Corn: 20%
Prickly sida [10]
  Growth controlling degree (%) Prickly sida: 40%
Wheat [11]
  Growth controlling degree (%) wheat: 20%
Rice (var. Nihonbare)
  Growth controlling degree (%) Rice: 30%
Green foxtail [12]
  Growth controlling degree (%) Green foxtail: 100%
Redroot pigweed [13]
  Growth controlling degree (%) Redroot pigweed: 50%
Barnyardgrass [14]
  Growth controlling degree (%) Barnyardgrass: 70%
Corn [15]
  Growth controlling degree (%) Corn: 10%
Barnyardgrass [16]
  Growth controlling degree (%) Barnyardgrass: 100%
Soybean [17]
  Growth controlling degree (%) Soyabean: 10%
Redroot pigweed [18]
  Growth controlling degree (%) Redroot pigweed: 50%
Crabgrass [19]
  Growth controlling degree (%) Crabgrass: 100%
Velvetleaf [20]
  Growth controlling degree (%) Velvetleaf: 10%
Rice [21]
  Growth controlling degree (%) Rice: 40%

## COCC(=O)N(C)C(c1cnccc1C(F)(F)F)C(C)C (stereo not drawn) [I-195]
Prickly sida [1]
  Growth controlling degree (%) Prickly sida: 70%
Rice [2]
  Growth controlling degree (%) Rice: 70%
Soybean [3]
  Growth controlling degree (%) Soybean: 60%
Japanese ribbon wapato
  Growth controlling degree (%) Japanese ribbon wapato: 80%
Green foxtail [4]
  Growth controlling degree (%) Green foxtail: 60%
Velvetleaf [5]
  Growth controlling degree (%) Velvetleaf: 10%
Japanese bulrush
  Growth controlling degree (%) Japanese bulrush: 100%
Wheat [6]
  Growth controlling degree (%) wheat: 30%
Barnyardgrass [7]
  Growth controlling degree (%) Barnyardgrass: 70%
Crabgrass [8]
  Growth controlling degree (%) Crabgrass: 80%
Corn [9]
  Growth controlling degree (%) Corn: 10%
Prickly sida [10]
  Growth controlling degree (%) Prickly sida: 30%
Wheat [11]
  Growth controlling degree (%) wheat: 10%
Rice (var. Nihonbare)
  Growth controlling degree (%) Rice: 20%
Green foxtail [12]
  Growth controlling degree (%) Green foxtail: 60%
Redroot pigweed [13]
  Growth controlling degree (%) Redroot pigweed: 80%
Barnyardgrass [14]
  Growth controlling degree (%) Barnyardgrass: 70%
Corn [15]
  Growth controlling degree (%) Corn: 20%
Barnyardgrass [16]
  Growth controlling degree (%) Barnyardgrass: 98%
Soybean [17]
  Growth controlling degree (%) Soyabean: 10%
Redroot pigweed [18]
  Growth controlling degree (%) Redroot pigweed: 30%
Crabgrass [19]
  Growth controlling degree (%) Crabgrass: 98%
Velvetleaf [20]
  Growth controlling degree (%) Velvetleaf: 60%
Rice [21]
  Growth controlling degree (%) Rice: 40%

## CC(C)C(c1cnccc1C(F)(F)F)N(C)C(=O)C(Br)C(C)(C)C (stereo not drawn) [I-196]
Prickly sida [1]
  Growth controlling degree (%) Prickly sida: 70%
Rice [2]
  Growth controlling degree (%) Rice: 40%
Soybean [3]
  Growth controlling degree (%) Soybean: 40%
Japanese ribbon wapato
  Growth controlling degree (%) Japanese ribbon wapato: 50%
Green foxtail [4]
  Growth controlling degree (%) Green foxtail: 40%
Velvetleaf [5]
  Growth controlling degree (%) Velvetleaf: 30%
Japanese bulrush
  Growth controlling degree (%) Japanese bulrush: 100%
Wheat [6]
  Growth controlling degree (%) wheat: 40%
Barnyardgrass [7]
  Growth controlling degree (%) Barnyardgrass: 98%
Crabgrass [8]
  Growth controlling degree (%) Crabgrass: 60%
Corn [9]
  Growth controlling degree (%) Corn: 10%
Prickly sida [10]
  Growth controlling degree (%) Prickly sida: 60%
Wheat [11]
  Growth controlling degree (%) wheat: 10%
Rice (var. Nihonbare)
  Growth controlling degree (%) Rice: 10%
Green foxtail [12]
  Growth controlling degree (%) Green foxtail: 95%
Redroot pigweed [13]
  Growth controlling degree (%) Redroot pigweed: 50%
Barnyardgrass [14]
  Growth controlling degree (%) Barnyardgrass: 60%
Corn [15]
  Growth controlling degree (%) Corn: 30%
Barnyardgrass [16]
  Growth controlling degree (%) Barnyardgrass: 70%
Soybean [17]
  Growth controlling degree (%) Soyabean: 10%
Redroot pigweed [18]
  Growth controlling degree (%) Redroot pigweed: 60%
Crabgrass [19]
  Growth controlling degree (%) Crabgrass: 90%
Velvetleaf [20]
  Growth controlling degree (%) Velvetleaf: 10%
Rice [21]
  Growth controlling degree (%) Rice: 30%
